We go through 5 compounds from patent US11679118B2, “Parasite therapy” (priority 2009, dated 2023).

Molecules are shown by their SMILES.

Test [1] relates to D. fragilis or B. hominis. Put plainly: Treatment of patients with D. fragilis and/or B. hominis infection (combined infection), symptoms and overall outcome. In kind it is in vivo, Dientamoeba fragilis; Blastocystis hominis. The conditions noted are these: for stool examination after previous treatments / symptoms after previous treatments: patient, various treatments before referral; for outcome of previous treatments: patient with combined B. hominis and D. fragilis infection, 3 different treatments before referral. As for the experimental part:
In another aspect the present invention relates to triple combinations of drugs. In some circumstances, especially with resistance even triple therapies may need to be combined to effect a cure. […] Again, the treatment requires 1 mg-5 grams/day of each of the components from 1-50 days. Other triple combinations can include iodoquinol, furazolidone and nitazoxanide. Combinations can also include diloxinide furoate, doxycycline and metronidazole in various triple combinations.
(§1) The patient was brought into the clinic and after bowel preparation a transcolonoscopic infusion of furazolidone, nitazoxanide and secnidazole was carried out.
The patient was referred to the Clinic for treatment. Symptoms were quite severe and they were given a combination of four medications including Septrin DS (cotrimoxazole) two times a day, diloxanide furoate 500 mg three times a day and secnidazole 400 mg three times a day together with doxycycline 50 mg two times a day.

The test system of a further test is Giardia lamblia. Kind of test: Treatment of a patient with chronic Giardiasis, follow-up by stool tests and symptoms. In kind it is in vivo. Conditions: previous speculative treatment in adequate doses. From the text:
A patient with weight loss and diarrhea presented for an endoscopy.

Test [2] relates to B. hominis. Kind of test: Treatment of patients with B. hominis infection, follow-up by stool test and symptoms. It counts as in vivo, Blastocystis hominis.
Test [3] relates to B. hominis. Conditions: in Egypt; Rossignol et al 2005; cited from earlier work.
The subject of the next test is D. fragilis. Kind of test: Treatment of patients with D. fragilis infection, follow-up by stool test. In kind it is in vivo, Dientamoeba fragilis. Conditions: clinical experience and usage; also frequently ineffective as monotherapy. The protocol:
as §1

Setting [4] is: person, 400 mg bid for 14 days, at 6 months.

`O=C1OCCN1/N=C/c1ccc([N+](=O)[O-])o1` [furazolidone]: in test [1], the “stool examination after previous treatments” value (“stool examination” for short) was “ongoing B. hominis and D. fragilis”; the “symptoms after previous treatments” value is recorded as “improved but then they recurred”.

`Cc1ncc([N+](=O)[O-])n1CCO` [metronidazole]: in the test with Giardia lamblia, the “Giardia lamblia infection, histologically at endoscopy” value is listed as “continued to have Giardia lamblia infection” and the diarrhea result is recorded as “did not settle”. Further, the “outcome of previous therapies” value in the test on B. hominis [2] (resistant Blastocystis hominis, multiple therapies before referral) is “failed”. Also, in test [1], the “outcome of previous treatments” value is recorded as “failed”; the “stool examination” value is “ongoing B. hominis and D. fragilis”; the “symptoms after previous treatments” value was “improved but then they recurred”.

Consider `CC(=O)Oc1ccccc1C(=O)Nc1ncc([N+](=O)[O-])s1` [nitazoxanide], for which, in test [1], the “stool examination” value was “ongoing B. hominis and D. fragilis”; the “symptoms after previous treatments” value was “improved but then they recurred”. Further, in the test on B. hominis [3], the “effectiveness against Blastocystis hominis” value was “effective”.

For the compound `CCn1cc(C(=O)O)c(=O)c2cc(F)c(N3CCNCC3)cc21` [norfloxacin], in the test on B. hominis [2] (clinical experience and usage, also frequently ineffective as monotherapy), the “effectiveness in treatment against Blastocystis hominis” value is given as “effective”. In the test with B. hominis [2] (setting [4]), the “stool test for B. hominis” value is given as “negative for B. hominis again” and the symptoms result is “still asymptomatic”. Moreover, in the test with B. hominis [2] (person, 400 mg bid for 14 days, follow up at 4 weeks), the “stool test for B. hominis” value was “negative for B. hominis”. In addition, the “effectiveness in treatment against Dientamoeba fragilis” value in the test with D. fragilis is on record as “effective”.

For `CCS(=O)(=O)CCn1c([N+](=O)[O-])cnc1C` [tinidazole], in test [1], the “outcome of previous treatments” value was “failed”.
